{
  "source": "BindingDB's records for patent US20230382911",
  "about": "(Hoffmann-La Roche, 2023)",
  "data": [
    {"biological_target": "S-adenosylmethionine synthase isoform type-2 (Homo sapiens, UniProt P31153)", "sequence (P31153 whole entry, canonical isoform)": "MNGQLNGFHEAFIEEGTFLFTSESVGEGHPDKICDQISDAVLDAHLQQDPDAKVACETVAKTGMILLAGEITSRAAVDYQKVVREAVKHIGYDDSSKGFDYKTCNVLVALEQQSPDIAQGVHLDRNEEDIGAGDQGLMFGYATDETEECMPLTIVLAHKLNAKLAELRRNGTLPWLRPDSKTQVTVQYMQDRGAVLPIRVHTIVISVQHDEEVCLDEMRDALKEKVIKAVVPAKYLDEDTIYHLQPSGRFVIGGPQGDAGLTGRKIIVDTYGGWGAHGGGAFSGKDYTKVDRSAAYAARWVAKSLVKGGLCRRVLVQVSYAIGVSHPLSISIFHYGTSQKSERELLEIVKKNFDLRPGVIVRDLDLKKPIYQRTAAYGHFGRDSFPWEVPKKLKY", "assay": "Measurement of Mat2A inhibition is performed in 384 well format absorbance-based assay", "procedure": "Recombinant human Mat2a (12.5 nM) and serial diluted compounds in DMSO (range of concentrations from 10 μM to […]) or controls (DMSO) are incubated for 15 minutes at room temperature (RT) in assay buffer containing 50 mM HEPES pH 7.5, 50 mM KCl, 50 mM MgCl2, 0.01% Tween 20 and 10 mM DTT. The reaction is initiated by the addition of the combined substrates ATP and Methionine, each at a final concentration of 100 μM. Final assay condition are 12.5 nM Mat2A, 100 μM ATP and Methionine Substrates and 2% DMSO. After 120 minutes of incubation at RT, the reaction is stopped by the addition of Biomol Green. The absorbance signal is measured at λ=635 nm with a multiplate reader (BMG Pherastar reader or equivalent) after 30 min of equilibration at RT.", "units": {"IC50": "nM"}, "values": [
      {"molecule": "COc1ccccc1C(=O)n1nc(N)c2cc(F)c(N3CCCC3)nc21", "note": "[US20230382911, Example 11]", "IC50": 66},
      {"molecule": "Cc1ccccc1C(=O)n1nc(N)c2ccc([C@H]3[C@H](C)[C@@H]3C)nc21", "note": "[US20230382911, Example 43]", "IC50": 35},
      {"molecule": "COc1ccccc1C(=O)n1nc(N)c2ccc([C@H]3[C@H](C)[C@@H]3C)nc21", "note": "[US20230382911, Example 44]", "IC50": 13}
    ]}
  ]
}
